Consider three substances from US20070161585A1, “Immunopotentiator and method for enhancing immunoactivity using the same” (priority 2003, published 2007).

The subject of series [1] is inflammatory cytokines (IL-6, IL-12 and TNF-α) in the serum. Put plainly: Serum inflammatory cytokines by ELISA after single intraperitoneal administration of ODN to mice. Format: in vivo. The note with it: Balb/c mouse; for IL-6 concentration in the serum / IL-12 concentration in the serum / TNF-α concentration in the serum: 10 nmol ODN in 400 μl saline, 2 hours later, mean; for Induction of inflammatory cytokines (in words): 10 nmol ODN, serum 2 hours later. Here is the method:
10 nmol of each of GATC-dA (sequence containing a GATC sequence), GATC-m^6A (sequence containing a Gm^6ATC sequence), CpG-ODN1668 (sequence containing a non-methylated CpG sequence) and GpC-ODN1720 (sequence containing a […]) shown in Table 1 was collected, and dissolved in 400 μl of a physiological saline solution. The resulting solution was intraperitoneally administered to a Balb/c mouse (male, 6 weeks old; Sankyo Labo-Service). Two hours later, concentrations of inflammatory cytokines (IL-6, IL-12 and TNF-α) in the serum were measured by an enzyme-linked immunosorbent assay (ELISA; AN'ALIZA, Genzyme TECHNE corp.).
Two hours after the administration, the blood was collected from the heart of the mouse, and allowed to stand overnight at 4° C. The serum was collected therefrom by centrifugation (20,000 g, 20 minutes, 4° C.).
By the way, the results shown in FIGS. 1 to 3 are expressed in terms of a mean value±standard deviation. In the graphs, two asterisks indicate “P<0.01”, and three asterisks “P<0.005 (n=3 (IL-12), 4 (IL-6, TNF-α)))”.
On the technique in general: In an ELISA, binding on a coated surface is turned into a signal by an enzyme label.

The subject of series [2] is inflammatory cytokines in the serum of the mouse. The experiment in a line: Serum inflammatory cytokines by ELISA after simultaneous administration of Gm^6ATC sequence and non-methylated CpG sequence to mice. Type of series: in vivo. The conditions noted are these: 5 nmol CpG-ODN1668 alone or mixed with equimolar second ODN, 400 μl saline, 2 hours later, mean (n=4). Here is the method: Accordingly, the Gm^6ATC sequence and CpG-ODN1668 containing the non-methylated sequence were simultaneously administered to a mouse to confirm an effect of inducting inflammatory cytokines. Regarding the doses of Gm^6ATC, GATC-dA and CpG-ODN1668, 5 nmol of CpG-ODN1668 was mixed with an equimolar amount of Gm^6ATC or GATC-dA, and the mixture was dissolved in 400 μl of a physiological saline solution. The resulting solution was administered to a mouse. Two hours later, the inflammatory cytokines in the serum of the mouse were measured by ELISA to confirm induction amounts.
The results shown in FIGS. 4 to 6 are expressed in terms of a mean value±standard deviation (n=4). In the graphs, one asterisk indicates “P<0.05”, two asterisks “P<0.01” and three asterisks “P<0.005”.

Consider “GpC-ODN1720: phosphothioate-stabilized oligonucleotide, non CpG motif, CC ATG AGC TTC CTG ATG CT (DNA CCATGAGCTTCCTGATGCT; phosphorothioate backbone, chemistry not fully specified)”, for which, in series [1], the “IL-6 concentration in the serum” value was 28 pg/mL, the “IL-12 concentration in the serum” value is 33 pg/mL, the “TNF-α concentration in the serum” value was 47 pg/mL and the “Induction of inflammatory cytokines (in words)” value is reported as “little induced”.

Consider “GATC-dA: phosphothioate-stabilized oligonucleotide, non-m^6A motif, TCCATGATCTTCCTGATGCT (DNA TCCATGATCTTCCTGATGCT; phosphorothioate backbone, chemistry not fully specified)”, for which, in series [1], the “IL-6 concentration in the serum” value is 14 pg/mL, the “IL-12 concentration in the serum” value came out at 48 pg/mL and the “TNF-α concentration in the serum” value turned out to be 92 pg/mL.

Regarding “CpG-ODN1668: phosphothioate-stabilized oligonucleotide, non-methylated CpG motif, TCCATGACGTTCCTGATGCT (DNA TCCATGACGTTCCTGATGCT; phosphorothioate backbone, chemistry not fully specified)”, in series [1], the “IL-6 concentration in the serum” value turned out to be 2100 pg/mL, the “IL-12 concentration in the serum” value worked out at 1000 pg/mL, the “TNF-α concentration in the serum” value was 1500 pg/mL and the “Induction of inflammatory cytokines (in words)” value is “very strong inflammatory cytokines were induced”. Moreover, in series [2], the “IL-6 concentration in the serum” value amounted to 530 pg/mL, the “IL-12 concentration in the serum” value was found to be 730 pg/mL and the “TNF-α concentration in the serum” value was 760 pg/mL.
